Patent US8642788B2, “Activators of executioner procaspases 3, 6 and 7” (The Regents of the University of California, priority 2008, dated 2014)

What was measured:
procaspase-6 = target: T1, procaspase-6 (Homo sapiens, UniProt P55212); test: Executioner procaspase-6 activation assay (Ac-VEID-AFC fluorogenic substrate); type: biochemical; conditions: incubation with compound for 5 h at 37° C.; 100 nM procaspase
T1 sequence (P55212 1-293): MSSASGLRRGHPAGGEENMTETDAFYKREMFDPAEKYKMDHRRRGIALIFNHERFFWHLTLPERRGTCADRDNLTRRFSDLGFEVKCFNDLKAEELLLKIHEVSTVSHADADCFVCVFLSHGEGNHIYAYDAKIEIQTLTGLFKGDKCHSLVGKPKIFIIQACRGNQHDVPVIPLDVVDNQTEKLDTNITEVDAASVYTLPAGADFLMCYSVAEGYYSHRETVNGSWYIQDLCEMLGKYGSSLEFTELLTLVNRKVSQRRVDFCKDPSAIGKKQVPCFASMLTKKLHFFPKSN
Protocol: The executioner procaspase-3, -6 and -7 activation assay protocol involves incubating the target protein at the physiologically-relevant concentration of 100 nM with activating compounds (ranging from 100 nM to 100 uM) in a total volume of 50 μL consisting of a reaction buffer of 50 mM HEPES, pH 7.4, 50 mM KCl, 1 mM DTT and 0.01% Triton-X100 (to reduce false positive hits due to compound aggregation). The procaspase/small molecule incubations are then agitated at 37° C. and assayed at various time points by addition of the fluorogenic peptide substrate 7-Amino-4-trifluoromethylcoumarin-DEVD (Ac-DEVD-AFC) (procaspases-3, -7) or Ac-VEID-AFC (procaspase-6) to a final concentration of 25 μM and analyzed by a kinetic 30 minute assay (excitation 365 nm and emission 495 nm). The final concentration of DMSO in each well is 3% and has no effect on enzyme stability or activity. […] All components of the assay including protein, substrate and inhibitor are stored as frozen aliquots and thawed immediately prior to the assay.
Tables 1 and 2. Procaspase activation as a result of incubation with compound for 5 h at 37° C. (+++ EC50˜0.5-10 μM; ++ EC50˜10-50 μM; + EC50˜50-200 μM; -no activation observed; ND not determined).

procaspase-3 = target: T2, procaspase-3 (Homo sapiens, UniProt P42574); test: Executioner procaspase-3 activation assay (Ac-DEVD-AFC fluorogenic substrate); type: biochemical; conditions: incubation with compound for 5 h at 37° C.; 100 nM procaspase; read-out: Procaspase Activation 3
T2 construct: His6 (C); made in house; host or cells: E. coli BL21(DE3)RP, pET-23b
T2 sequence (P42574 1-277): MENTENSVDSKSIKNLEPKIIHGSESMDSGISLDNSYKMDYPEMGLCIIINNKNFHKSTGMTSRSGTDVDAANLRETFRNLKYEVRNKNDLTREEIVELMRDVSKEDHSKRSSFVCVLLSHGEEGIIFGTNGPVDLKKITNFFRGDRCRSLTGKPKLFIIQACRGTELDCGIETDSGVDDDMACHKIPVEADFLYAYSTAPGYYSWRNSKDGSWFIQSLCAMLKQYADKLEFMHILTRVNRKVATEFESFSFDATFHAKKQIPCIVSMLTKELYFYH
Protocol: The executioner procaspase-3, -6 and -7 activation assay protocol involves incubating the target protein at the physiologically-relevant concentration of 100 nM with activating compounds (ranging from 100 nM to 100 uM) in a total volume of 50 μL consisting of a reaction buffer of 50 mM HEPES, pH 7.4, 50 mM KCl, 1 mM DTT and 0.01% Triton-X100 (to reduce false positive hits due to compound aggregation). […] All components of the assay including protein, substrate and inhibitor are stored as frozen aliquots and thawed immediately prior to the assay.

SMILES | EC50 (procaspase-6) [µM] | EC50 (procaspase-3) [µM]
O=C(Nc1cccc(-c2cn3ccccc3n2)c1)c1cc2cccc(Br)c2oc1=O [compound 4, 8-Bromo-2-oxo-2H-chromene-3-carboxylic acid (3-imidazo[1,2-a]pyridin-2-yl-phenyl)-amide] | > 100 | > 100
COc1cccc2cc(C(=O)Nc3cccc(N4CCOCC4)c3)c(=O)oc12 [1541I, 8-Methoxy-2-oxo-2H-chromene-3-carboxylic acid (3-morpholin-4-yl-phenyl)-amide] | > 100 | > 100
O=C(Nc1cccc(-c2cn3ccccc3n2)c1)C1=Cc2cc(Cl)ccc2OC1 [compound 180, 6-Chloro-2H-chromene-3-carboxylic acid (3-imidazo[1,2-a]pyridin-2-yl-phenyl)-amide] | > 100 | 50 to 200
COc1ccc2oc(=O)c(C(=O)Nc3cccc(-c4cn5ccccc5n4)c3)cc2c1 [compound 6, 6-Methoxy-2-oxo-2H-chromene-3-carboxylic acid (3-imidazo[1,2-a]pyridin-2-yl-phenyl)-amide] | > 100 | > 100
O=C(Nc1cccc(-c2cn3ccccc3n2)c1)c1cc2cc(Br)ccc2oc1=O [compound 1, 6-Bromo-2-oxo-2H-chromene-3-carboxylic acid (3-imidazo[1,2-a]pyridin-2-yl-phenyl)-amide] | 50 to 200 | 50 to 200
O=C(Nc1cccc(-c2cn3ccccc3n2)c1)c1cc2cccc(F)c2oc1=O [compound 2, 8-Fluoro-2-oxo-2H-chromene-3-carboxylic acid (3-imidazo[1,2-a]pyridin-2-yl-phenyl)-amide] | 0.5 to 10 | 0.5 to 10
CCOc1cccc2cc(C(=O)Nc3cccc(-c4cn5ccccc5n4)c3)c(=O)oc12 [compound 5, 8-Ethoxy-2-oxo-2H-chromene-3-carboxylic acid (3-imidazo[1,2-a]pyridin-2-yl-phenyl)-amide] | > 100 | > 100
COc1cccc2cc(C(=O)Nc3cccc(-c4nc5ccccc5[nH]4)c3)c(=O)oc12 [1541F, 8-Methoxy-2-oxo-2H-chromene-3-carboxylic acid [3-(1H-benzoimidazol-2-yl)-phenyl]-amide] | > 100 | > 100
O=C(Nc1cccc(-c2cn3ccccc3n2)c1)c1cc2ccccc2[nH]c1=O [compound 181, 2-Oxo-1,2-dihydro-quinoline-3-carboxylic acid (3-imidazo[1,2-a]pyridin-2-yl-phenyl)-amide] | 10 to 50 | 10 to 50
O=C(Nc1cccc(-c2cn3ccccc3n2)c1)c1cc2ccc(O)c(O)c2oc1=O [compound 3, 7,8-Dihydroxy-2-oxo-2H-chromene-3-carboxylic acid (3-imidazo[1,2-a]pyridin-2-yl-phenyl)-amide] | > 100 | 50 to 200
COc1cccc2cc(C(=O)Nc3cccc(-c4cn5ccccc5n4)c3)oc12 [compound 179, 7-Methoxy-benzofuran-2-carboxylic acid (3-imidazo[1,2-a]pyridin-2-yl-phenyl)-amide] | 10 to 50 | 10 to 50
COc1ccc2cc(C(=O)Nc3cccc(-c4cn5ccccc5n4)c3)c(=O)oc2c1 [1541C, 7-Methoxy-2-oxo-2H-chromene-3-carboxylic acid (3-imidazo[1,2-a]pyridin-2-yl-phenyl)-amide] | > 100 | > 100
O=C(Nc1cccc(-c2cn3ccccc3n2)c1)c1cc2cccc(OC(F)(F)F)c2oc1=O [1541B, 2-Oxo-8-trifluoromethoxy-2H-chromene-3-carboxylic acid (3-imidazo[1,2-a]pyridin-2-yl-phenyl)-amide] | > 100 | > 100
COc1cc(N2CCOCC2)c2oc(=O)c(C(=O)Nc3cccc(-c4cn5ccccc5n4)c3)cc2c1 [compound 14, 6-Methoxy-8-morpholin-4-yl-2-oxo-2H-chromene-3-carboxylic acid (3-imidazo[1,2-a]pyridin-2-yl-phenyl)-amide] | > 100 | > 100
O=C(Nc1cccc(-c2cn3ccccc3n2)c1)c1cc2cc(OC(F)(F)F)ccc2oc1=O [compound 9, 6-Trifluoromethoxy-2-oxo-2H-chromene-3-carboxylic acid (3-imidazo[1,2-a]pyridin-2-yl-phenyl)-amide] | > 100 | > 100
O=C(Nc1cccc(-c2cn3ccccc3n2)c1)c1cc2cc(O)ccc2oc1=O [compound 11, 6-Hydroxy-2-oxo-2H-chromene-3-carboxylic acid (3-imidazo[1,2-a]pyridin-2-yl-phenyl)-amide] | > 100 | > 100
O=C(Nc1cccc(-c2cn3ccccc3n2)c1)c1cc2cccc(O)c2oc1=O [1541A, 8-Hydroxy-2-oxo-2H-chromene-3-carboxylic acid (3-imidazo[1,2-a]pyridin-2-yl-phenyl)-amide] | > 100 | 0.5 to 10
COc1cccc2cc(C(=O)Nc3cccc(-c4cn5ccccc5n4)c3)c(=O)oc12 [compound 1541, 8-Methoxy-2-oxo-2H-chromene-3-carboxylic acid (3-imidazo[1,2-a]pyridin-2-yl-phenyl)-amide] | 0.5 to 10 | –
COc1cc(CN2CCOCC2)c2oc(=O)c(C(=O)Nc3cccc(-c4cn5ccccc5n4)c3)cc2c1 [1541D, 6-Methoxy-8-morpholin-4-ylmethyl-2-oxo-2H-chromene-3-carboxylic acid (3-imidazo[1,2-a]pyridin-2-yl-phenyl)-amide] | > 100 | > 100
COc1cccc2cc(C(=O)Nc3ccccc3)c(=O)oc12 [1541H, 8-Methoxy-2-oxo-2H-chromene-3-carboxylic acid phenylamide] | > 100 | > 100
COc1cccc2cc(C(=O)Nc3ccc(-c4nc5ccccc5[nH]4)cc3)c(=O)oc12 [compound 183, 8-Methoxy-2-oxo-2H-chromene-3-carboxylic acid [4-(1H-benzoimidazol-2-yl)-phenyl]-amide] | – | 0.5 to 10
COc1cccc2c1OCC(C(=O)Nc1cccc(-c3cn4ccccc4n3)c1)=C2 [compound 182, 8-Methoxy-2H-chromene-3-carboxylic acid (3-imidazo[1,2-a]pyridin-2-yl-phenyl)-amide] | > 100 | > 100
O=C(Nc1cccc(-c2cn3ccccc3n2)c1)c1cc2cc(I)ccc2oc1=O [compound 10, 6-Iodo-2-oxo-2H-chromene-3-carboxylic acid (3-imidazo[1,2-a]pyridin-2-yl-phenyl)-amide] | > 100 | > 100
COc1ccc2cc(C(=O)Nc3cccc(-c4cn5ccccc5n4)c3)c(=O)oc2c1OC [compound 8, 7,8-Dimethoxy-2-oxo-2H-chromene-3-carboxylic acid (3-imidazo[1,2-a]pyridin-2-yl-phenyl)-amide] | – | > 100
O=C(Nc1cccc(-c2cn3ccccc3n2)c1)c1cc2cc(O)c(O)cc2oc1=O [compound 7, 6,7-Dihydroxy-2-oxo-2H-chromene-3-carboxylic acid (3-imidazo[1,2-a]pyridin-2-yl-phenyl)-amide] | > 100 | > 100
O=C(Nc1cccc(-c2cn3ccccc3n2)c1)c1cc2ccccc2oc1=O [compound 13, 2-oxo-2H-chromene-3-carboxylic acid (3-imidazo[1,2-a]pyridin-2-yl-phenyl)-amide] | – | > 100
